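Results reflect a 48-hour exposure of cells in 96-well plates to compound at five concentrations. At the GI50, growth is halved. TGI is the concentration that stops growth completely.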
Assays:
Test in all cases: inhibition of tumour cell growth, NCI panel, 48 h
786-0 renal = test system: 786-0 renal
HOP-62 NSCLC = test system: HOP-62 NSCLC
A498 renal = test system: A498 renal
HS 578T breast = test system: HS 578T breast
NCI-H226 lung = test system: NCI-H226 lung
M14 melanoma = test system: M14 melanoma
UACC-62 melanoma = test system: UACC-62 melanoma
SK-MEL-28 melanoma = test system: SK-MEL-28 melanoma
LOX IMVI melanoma = test system: LOX IMVI melanoma
U251 CNS = test system: U251 CNS
HCT-15 colon = test system: HCT-15 colon
SR leukemia = test system: SR leukemia
T-47D breast = test system: T-47D breast
SF-268 CNS = test system: SF-268 CNS
OVCAR-8 ovarian = test system: OVCAR-8 ovarian
SF-539 CNS = test system: SF-539 CNS
SK-MEL-2 melanoma = test system: SK-MEL-2 melanoma
MOLT-4 leukemia = test system: MOLT-4 leukemia
NCI-H23 lung = test system: NCI-H23 lung
NCI/ADR-RES ovarian = test system: NCI/ADR-RES ovarian
HCC-2998 colon = test system: HCC-2998 colon
TK-10 renal = test system: TK-10 renal
DU-145 prostate = test system: DU-145 prostate
MDA-MB-435 = test system: MDA-MB-435
UACC-257 melanoma = test system: UACC-257 melanoma
UO-31 renal = test system: UO-31 renal
OVCAR-5 ovarian = test system: OVCAR-5 ovarian
MALME-3M melanoma = test system: MALME-3M melanoma
SF-295 CNS = test system: SF-295 CNS
RPMI-8226 leukemia = test system: RPMI-8226 leukemia
OVCAR-4 ovarian = test system: OVCAR-4 ovarian
K-562 leukemia = test system: K-562 leukemia
CAKI-1 renal = test system: CAKI-1 renal
EKVX NSCLC = test system: EKVX NSCLC
BT-549 breast = test system: BT-549 breast
MCF7 breast = test system: MCF7 breast
HCT-116 colon = test system: HCT-116 colon
NCI-H460 lung = test system: NCI-H460 lung
SNB-19 CNS = test system: SNB-19 CNS
SN12C renal = test system: SN12C renal
NCI-H522 lung = test system: NCI-H522 lung
IGROV1 ovarian = test system: IGROV1 ovarian
HT29 colon = test system: HT29 colon
SK-MEL-5 melanoma = test system: SK-MEL-5 melanoma
SW-620 colon = test system: SW-620 colon
ACHN renal = test system: ACHN renal
KM12 colon = test system: KM12 colon
MDA-MB-231 breast = test system: MDA-MB-231 breast
RXF 393 renal = test system: RXF 393 renal
HOP-92 NSCLC = test system: HOP-92 NSCLC
A549 NSCLC = test system: A549 NSCLC
CCRF-CEM leukemia = test system: CCRF-CEM leukemia
SNB-75 CNS = test system: SNB-75 CNS

Structure (SMILES): COc1cc(/C=N/n2cnc3oc(-c4ccccc4)cc3c2=N)cc(CN2CCCCC2)c1O
- GI50 (786-0 renal): 1.48 µM
- TGI (786-0 renal): 3.03 µM
- GI50 (HOP-62 NSCLC): 1.79 µM
- TGI (HOP-62 NSCLC): 3.77 µM
- GI50 (A498 renal): 1.73 µM
- TGI (A498 renal): 3.28 µM
- GI50 (HS 578T breast): 1.83 µM
- TGI (HS 578T breast): 4.36 µM
- GI50 (NCI-H226 lung): 2.01 µM
- TGI (NCI-H226 lung): 4.55 µM
- GI50 (M14 melanoma): 1.56 µM
- TGI (M14 melanoma): 3.18 µM
- GI50 (UACC-62 melanoma): 1.83 µM
- TGI (UACC-62 melanoma): 3.35 µM
- GI50 (SK-MEL-28 melanoma): 1.63 µM
- TGI (SK-MEL-28 melanoma): 3.25 µM
- GI50 (LOX IMVI melanoma): 0.444 µM
- TGI (LOX IMVI melanoma): 1.52 µM
- GI50 (U251 CNS): 1.83 µM
- TGI (U251 CNS): 3.6 µM
- GI50 (HCT-15 colon): 1.77 µM
- TGI (HCT-15 colon): 3.49 µM
- GI50 (SR leukemia): 0.247 µM
- TGI (SR leukemia): 0.687 µM
- GI50 (T-47D breast): 2.04 µM
- TGI (T-47D breast): 4.62 µM
- GI50 (SF-268 CNS): 1.97 µM
- TGI (SF-268 CNS): 4.03 µM
- GI50 (OVCAR-8 ovarian): 1.95 µM
- TGI (OVCAR-8 ovarian): 4.7 µM
- GI50 (SF-539 CNS): 1.75 µM
- TGI (SF-539 CNS): 3.33 µM
- GI50 (SK-MEL-2 melanoma): 1.79 µM
- TGI (SK-MEL-2 melanoma): 3.66 µM
- GI50 (MOLT-4 leukemia): 2.25 µM
- TGI (MOLT-4 leukemia): 6.57 µM
- GI50 (NCI-H23 lung): 1.81 µM
- TGI (NCI-H23 lung): 3.57 µM
- GI50 (NCI/ADR-RES ovarian): 2.14 µM
- TGI (NCI/ADR-RES ovarian): 4.91 µM
- GI50 (HCC-2998 colon): 1.85 µM
- TGI (HCC-2998 colon): 3.34 µM
- GI50 (TK-10 renal): 1.91 µM
- TGI (TK-10 renal): 3.46 µM
- GI50 (DU-145 prostate): 1.8 µM
- TGI (DU-145 prostate): 3.32 µM
- GI50 (MDA-MB-435): 1.64 µM
- TGI (MDA-MB-435): 3.06 µM
- GI50 (UACC-257 melanoma): 1.93 µM
- TGI (UACC-257 melanoma): 3.88 µM
- GI50 (UO-31 renal): 1.39 µM
- TGI (UO-31 renal): 2.92 µM
- GI50 (OVCAR-5 ovarian): 1.89 µM
- TGI (OVCAR-5 ovarian): 3.46 µM
- GI50 (MALME-3M melanoma): 1.79 µM
- TGI (MALME-3M melanoma): 3.72 µM
- GI50 (SF-295 CNS): 1.83 µM
- TGI (SF-295 CNS): 3.39 µM
- GI50 (RPMI-8226 leukemia): 2.13 µM
- TGI (RPMI-8226 leukemia): 5.38 µM
- GI50 (OVCAR-4 ovarian): 1.75 µM
- TGI (OVCAR-4 ovarian): 3.67 µM
- GI50 (K-562 leukemia): 0.201 µM
- TGI (K-562 leukemia): 0.458 µM
- GI50 (CAKI-1 renal): 1.43 µM
- TGI (CAKI-1 renal): 2.77 µM
- GI50 (EKVX NSCLC): 1.89 µM
- TGI (EKVX NSCLC): 3.68 µM
- GI50 (BT-549 breast): 2.12 µM
- TGI (BT-549 breast): 4.19 µM
- GI50 (MCF7 breast): 0.512 µM
- TGI (MCF7 breast): 1.99 µM
- GI50 (HCT-116 colon): 0.31 µM
- TGI (HCT-116 colon): 0.959 µM
- GI50 (NCI-H460 lung): 1.43 µM
- TGI (NCI-H460 lung): 3.08 µM
- GI50 (SNB-19 CNS): 1.98 µM
- TGI (SNB-19 CNS): 3.73 µM
- GI50 (SN12C renal): 1.55 µM
- TGI (SN12C renal): 3.21 µM
- GI50 (NCI-H522 lung): 2.01 µM
- TGI (NCI-H522 lung): 4.51 µM
- GI50 (IGROV1 ovarian): 1.69 µM
- TGI (IGROV1 ovarian): 3.35 µM
- GI50 (HT29 colon): 0.489 µM
- TGI (HT29 colon): 1.79 µM
- GI50 (SK-MEL-5 melanoma): 1.76 µM
- TGI (SK-MEL-5 melanoma): 3.17 µM
- GI50 (SW-620 colon): 1.91 µM
- TGI (SW-620 colon): 3.76 µM
- GI50 (ACHN renal): 1.36 µM
- TGI (ACHN renal): 2.67 µM
- GI50 (KM12 colon): 1.81 µM
- TGI (KM12 colon): 3.39 µM
- GI50 (MDA-MB-231 breast): 1.64 µM
- TGI (MDA-MB-231 breast): 3.35 µM
- GI50 (RXF 393 renal): 1.41 µM
- TGI (RXF 393 renal): 3.15 µM
- GI50 (HOP-92 NSCLC): 1.48 µM
- TGI (HOP-92 NSCLC): 3.28 µM
- GI50 (A549 NSCLC): 1.7 µM
- TGI (A549 NSCLC): 3.45 µM
- GI50 (CCRF-CEM leukemia): 0.324 µM
- TGI (CCRF-CEM leukemia): 1.25 µM
- GI50 (SNB-75 CNS): 1.39 µM
- TGI (SNB-75 CNS): 2.79 µM
